Assay results as given in patent US7115651B2, “Macrocycles and uses thereof” (Sloan-Kettering Institute for Cancer Research, priority 2000, dated 2006).

Assays:
[1] = system: small cell lung cancer cell line with defective Rb function; experiment: inhibition of small cell lung cancer cells with defective Rb function; assay type: cell-based, human; conditions: for inhibition of small cell lung cancer cell line with defective Rb function / potency compared with 17-AGG in small cell lung cancer cell line with defective Rb function: FIG. 20
Method: (§1) The human cancer cell lines MCF7, BT474 and N417 were obtained from the American Type Culture Collection (Manassas, Va., USA) and maintained in a 1:1 mixture of DME:F12 supplemented with 2 mM glutamine, 50 U/mL penicillin, 50 U/mL streptomycin and 5% heat inactivated fetal bovie serum (Gemini Bioproducts) and incubated at 37° C. in 5% CO2.
(§2) Growth assays were performed by seeding 10000 cells (MCF7, BT474 or N417) per well in 6-well dishes and incubating for 24 h before drug treatment. Drugs or vehicle were administered as outlined for each experiment, and cells were incubated for the time periods depcited and then the number quantified by a Coulter counter.

HSP90 = experiment: binding of aigialomycin D to HSP90; conditions: compared with radicicol
KB cells = conditions: against KB cells; Isaka et al. 2002; cited from earlier work
P. falciparum = conditions: against P. falciparum; Isaka et al. 2002; cited from earlier work
Rb negative cells = experiment: cell cycle effect in Rb negative cells; assay type: cell-based
Method: (§3) Cell cycle distribution was assayed according to Nusse et al. with a Becton Dickinson fluorescence-activated cell sorter and analyzed by a Cell Cycle Multi-cycle system (Phoenix Flow System, San Diego, Calif., USA).

[2] = system: Rb (retinoblastoma) positive cells; experiment: cell cycle effect in Rb positive cells; assay type: cell-based
Method: as §3

[3] = system: MCF7 cells (HER2 overexpressed, Rb positive); experiment: growth of MCF7 cells treated with radicicol and analogues; assay type: cell-based, human
Method: as §1, §2

[4] = system: breast cancer cell with wild type Rb; experiment: inhibition of breast cancer cells with wild type Rb; assay type: cell-based, human; conditions: FIG. 20
Method: as §1, §2

HER2 = experiment: reduction of HER2 in MCF7 and BT474 cells (protein assay, anti-Her2 blot); assay type: cell-based, human; conditions: 0.5 μM through 5 μM
Method: The human cancer cell lines MCF7, BT474 and […] were obtained from the American Type Culture Collection (Manassas, Va., USA) and maintained in a 1:1 mixture of DME:F12 supplemented with 2 mM glutamine, 50 U/mL penicillin, 50 […] and 5% heat inactivated fetal bovie serum (Gemini Bioproducts) and incubated at 37° C. in 5% CO2. Cells were grown to 60-70% confluence and exposed to drugs or DMSO vehicle for the indicated time periods. Lysates were prepared using 5 mM Tris pH 7.4, 2% SDS and 10% glycerol lysis buffer. Protein concentration was determined using the BCA kit (Pierce Chemical Co.) according to the manufacturer's instructions. Clarified protein lysates (20-50 μg) were electrophoretically resolved on denaturing SDS-PAGE, transferred to ntirocellulose and probed with the following primary antibodies: anti-Her2 (C-18).

Compound	inhibition of small cell lung cancer cell line with defective Rb function [1]	potency compared with 17-AGG in small cell lung cancer cell line with defective Rb function [1]	efficacy in side by side experiment with radicicol (growth of MCF7 cells, FIG. 19) [3]	inhibition of breast cancer cell with wild type Rb [4]	further results
C=CCNC1=C2C[C@@H](C)C[C@H](OC)[C@H](O)[C@@H](C)/C=C(\C)[C@H](OC(N)=O)[C@@H](OC)/C=C\C=C(/C)C(=O)NC(=CC1=O)C2=O [17-AGG, 17-allylaminogeldanamycin]					potency in cells with wild type Rb versus cells with defective Rb function ([1]; wild type Rb vs defective Rb): much more potent against cells with wild type Rb than in cells with defective Rb function
C[C@H]1C/C=C/[C@@H](O)[C@@H](O)CC/C=C/c2cc(O)cc(O)c2C(=O)O1 [Aigialomycin D]					binding to HSP90 (HSP90): does bind to HSP90 (though significantly less so than radicicol (2)); antitumor activity IC50 (KB cells): 3.0 µg/mL; antimalarial activity IC50 (P. falciparum): 6.6 µg/mL
C[C@@H]1C[C@H]2O[C@@H]2/C=C\C=C\C(=O)Cc2c(Cl)c(O)cc(O)c2C(=O)O1 [Radicicol]	potent inhibitors	much more potent than 17-AGG	demonstrated efficacy	potent inhibitors	cell cycle block in Rb negative cells (Rb negative cells): blocked in the M (mitosis) phase; cell cycle block in Rb positive cells [2]: clear G1 (growth) phase block
C[C@@H]1C[C@H]2C[C@@H]2/C=C\C=C\C(=O)Cc2c(Cl)c(O)cc(O)c2C(=O)O1 [cyclopropyl radicicol, Cycloproparadicicol]	potent inhibitors	much more potent than 17-AGG		potent inhibitors	effectiveness in reducing HER2 compared with radicicol (HER2): at least as effective, if not better than radicicol
radicicol oxime [VII]			demonstrated efficacy		
